{"source": "patent US4749717A", "about": "“Dopamine-beta-hydroxylase inhibitors” (SmithKline Beckman Corporation, priority 1987, dated 1988)", "key": {"[1]": {"target": "T1, DBH (dopamine-β-hydroxylase) (Bos taurus, UniProt P15101)", "T1 sequence (P15101 1-610)": "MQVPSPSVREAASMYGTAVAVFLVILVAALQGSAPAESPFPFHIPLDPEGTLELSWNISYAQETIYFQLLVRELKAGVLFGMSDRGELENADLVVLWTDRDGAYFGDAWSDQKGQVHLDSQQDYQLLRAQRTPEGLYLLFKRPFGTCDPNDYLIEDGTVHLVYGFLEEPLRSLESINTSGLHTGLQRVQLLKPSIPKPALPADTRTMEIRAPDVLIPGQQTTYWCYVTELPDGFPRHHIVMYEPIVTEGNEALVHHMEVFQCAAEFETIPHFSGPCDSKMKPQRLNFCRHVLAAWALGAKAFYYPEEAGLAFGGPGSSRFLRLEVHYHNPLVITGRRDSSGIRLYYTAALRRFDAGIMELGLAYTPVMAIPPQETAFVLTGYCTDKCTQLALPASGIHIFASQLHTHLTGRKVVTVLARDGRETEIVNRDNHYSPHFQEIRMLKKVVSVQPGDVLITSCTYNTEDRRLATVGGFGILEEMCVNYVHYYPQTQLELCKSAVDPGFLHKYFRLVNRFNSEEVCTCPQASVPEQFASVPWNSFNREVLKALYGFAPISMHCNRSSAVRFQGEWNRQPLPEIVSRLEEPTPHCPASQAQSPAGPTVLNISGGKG", "assay": "in vitro DBH inhibition (conversion of tyramine to octopamine; spectrophotometric absorbance at 330 nm)", "assay_type": "biochemical", "settings": "concentration of compound at which DBH activity was halved", "description": "Listed in Table I are the compounds of the invention that were tested for in vitro DBH inhibition by a standard procedure for assaying conversion of tyramine to octopamine in the presence of DBH. J. J. Pisano, et al., Biochim. Biophys. Acta, 43, 566-568 (1960). Octopamine was assayed following sodium periodate oxidation to p-hydroxybenzaldehyde by measuring spectrophotometric absorbance at 330 nm."}, "[2]": {"test_system": "spontaneously hypertensive rats", "assay": "mean arterial blood pressure in spontaneously hypertensive rats", "assay_type": "in vivo, rat", "settings": "50 mg/kg intraperitoneally", "description": "Further, spontaneously hypertensive rats were treated with a suspension or solution of 1-(2-thienylmethyl)imidazole-2-thiol at a dose of 50 mg/kg intraperitoneally, and mean arterial blood pressure was monitored for 260 minutes using indwelling cannulae in the tail arteries. […] The maximal blood pressure reduction was approximately 25 to 30 mmHg."}, "[3]": {"target": "T2, DBH (dopamine-β-hydroxylase) (Homo sapiens, UniProt P09172)", "T2 sequence (P09172 1-617)": "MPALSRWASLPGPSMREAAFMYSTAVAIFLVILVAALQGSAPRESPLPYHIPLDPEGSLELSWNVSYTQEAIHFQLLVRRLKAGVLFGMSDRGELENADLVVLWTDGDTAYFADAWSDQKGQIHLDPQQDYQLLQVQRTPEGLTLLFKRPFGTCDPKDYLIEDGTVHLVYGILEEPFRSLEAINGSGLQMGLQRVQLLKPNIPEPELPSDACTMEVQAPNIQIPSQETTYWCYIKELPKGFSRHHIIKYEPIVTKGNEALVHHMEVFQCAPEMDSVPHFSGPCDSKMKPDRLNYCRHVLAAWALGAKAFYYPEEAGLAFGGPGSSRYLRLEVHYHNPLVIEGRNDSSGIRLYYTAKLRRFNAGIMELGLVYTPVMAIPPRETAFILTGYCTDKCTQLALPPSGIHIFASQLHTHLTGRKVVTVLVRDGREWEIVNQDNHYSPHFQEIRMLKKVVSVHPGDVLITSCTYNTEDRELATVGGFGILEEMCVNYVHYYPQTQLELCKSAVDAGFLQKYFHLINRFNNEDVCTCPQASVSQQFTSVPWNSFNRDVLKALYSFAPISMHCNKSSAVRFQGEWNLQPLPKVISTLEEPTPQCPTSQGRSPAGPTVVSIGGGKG", "settings": "literature; cited from earlier work"}, "[4]": {"settings": "Ehrreich et al.; cited from earlier work"}, "[5]": {"settings": "Teresawa et al.; cited from earlier work"}}}
{"smiles": "Sc1nccn1Cc1cccs1", "note": "[1-(2-thienylmethyl)imidazole-2-thiol, 1-(2-Thienylmethyl)Imidazole-2-Thiol]", "values": [{"measurement": "IC50", "setting": "[1]", "result": 13, "unit": "µM"}, {"measurement": "time after treatment to significant blood pressure reductions", "setting": "[2]", "result": "≤ 60", "unit": "min"}, {"measurement": "maximal blood pressure reduction", "setting": "[2]; mean arterial blood pressure, approximately", "result": "25 to 30", "unit": "mmHg"}, {"measurement": "blood pressure reduction compared to vehicle-treated controls", "setting": "[2]; monitored for 260 minutes", "result": "significant blood pressure reductions"}]}
{"smiles": "Sc1nccn1Cc1ccsc1", "note": "[1-(3-thienylmethyl)imidazole-2-thiol, 1-(3-Thienylmethyl)imidazole-2-thiol]", "values": [{"measurement": "IC50", "setting": "[1]", "result": 7.4, "unit": "µM"}]}
{"smiles": "NCC=Cc1cccs1", "note": "[3-(2-thienyl)allylamine]", "values": [{"measurement": "DBH inhibition (in words)", "setting": "[3]", "result": "potent, time-dependent DBH inhibitors"}]}
{"smiles": "O=C(O)c1ccc(CCC(Br)CBr)cn1", "note": "(centres unmarked) [5-(3,4-dibromobutyl)picolinic acid]", "values": [{"measurement": "DBH inhibition (in words)", "setting": "[3]", "result": "DBH inhibitors"}]}
{"smiles": "O=C(O)c1ccc(CCCCCl)cn1", "note": "[5-(4-chlorobutyl) picolinic acid]", "values": [{"measurement": "DBH inhibition (in words)", "setting": "[3]", "result": "inhibit DBH"}]}
{"smiles": "CN(C)C(=S)SCc1ccc(C(=O)O)nc1", "note": "[5-(dimethyldithiocarbamoylmethyl)picolinic acid]", "values": [{"measurement": "DBH inhibition (in words)", "setting": "[3]", "result": "DBH inhibitors"}]}
{"smiles": "NOCc1ccccc1", "note": "[Benzyloxyamine, benzyloxyamine]", "values": [{"measurement": "DBH inhibition (in words)", "setting": "[3]", "result": "apparently act as competitive inhibitors"}]}
{"smiles": "CCCCc1ccc(C(N)=O)nc1", "note": "[Bupicomide, 5-(n-butyl)picolinamine]", "values": [{"measurement": "DBH inhibition (in words)", "setting": "[3]", "result": "DBH inhibitor"}, {"measurement": "antihypertensive activity (in words)", "setting": "[4]", "result": "has antihypertensive activity"}]}
{"smiles": "NNCc1ccccc1", "note": "[benzylhydrazine]", "values": [{"measurement": "DBH inhibition (in words)", "setting": "[3]", "result": "apparently act as competitive inhibitors"}]}
{"smiles": "CCCCc1ccc(C(=O)O)nc1", "note": "[fusaric acid]", "values": [{"measurement": "hepatotoxicity (in words)", "setting": "[5]", "result": "hepatotoxic"}]}
